Assays:
[1] = system: Ramularia (Ramularia collo-cygni) in barley; experiment: fungicidal activity toward Ramularia in barley, protected conditions; type: in vivo
Excerpt: The following fungicides and combination of fungicides are applied to ramularia in barley. The observation was made 10 days after application. The results are shown below: The following fungicides and combination of fungicides are applied to ramularia in barley. The observation was made 24 days after application.

[2] = system: Septoria Tritici Blotch (STB) (Zymoseptoria tritici); experiment: glasshouse fungicidal efficacy against Septoria Tritici Blotch on winter wheat; conditions: Abbott's transformation
Experimental: The study design was a randomized complete block with 4 replicates.
The treatments were applied in accordance with Table 14, and on the day after application, artificial inoculation of the target was performed by spraying the inoculum solution at the concentration of 1×10^6 cfu/ml on the leaves. The compositions were diluted in a water volume equivalent to 400 L/ha.
Analysis of Variance (ANOVA) and a Bartlett test to assume the homogeneity of the treatment variances were performed on each assessment. Data were analyzed using ANOVA.
Evaluations were performed on incidence and severity of Septoria on leaves and transformed into percentage of disease control using the Abbott's transformation.

SMILES: Cc1ccc(S(=O)(=O)n2cc(F)c(=N)n(C)c2=O)cc1 [ADF-16]
- Observed Efficacy ([1]; ADF-16 25 g a.i./ha, 10 days after application): 45.70%
- Observed Efficacy ([1]; ADF-16 25 g a.i./ha, 24 days after application): 44.50%
- Observed Efficacy ([1]; ADF-16 35 g a.i./ha, 10 days after application): 55.00%
- Observed Efficacy ([1]; ADF-16 35 g a.i./ha, 24 days after application): 45.60%

SMILES: O=C1c2ccccc2C(=O)N1SC(Cl)(Cl)Cl [Folpet, folpet]
- Observed Efficacy ([1]; Folpet 175 g a.i./ha, 10 days after application): 25.10%
- Observed Efficacy ([1]; Folpet 175 g a.i./ha, 24 days after application): 21.60%
- Observed Efficacy ([1]; Folpet 300 g a.i./ha, 10 days after application): 61.10%
- Observed Efficacy ([1]; Folpet 300 g a.i./ha, 24 days after application): 31.00%
- Observed Efficacy ([1]; Folpet 400 g a.i./ha, 10 days after application): 64.80%
- Observed Efficacy ([1]; Folpet 400 g a.i./ha, 24 days after application): 49.80%
- Disease control on severity on leaves ([2]; Folpet 500 g AI/ha): 41.6%

SMILES: CC(O)(Cn1cncn1)c1ccc(Oc2ccc(Cl)cc2)cc1C(F)(F)F (stereo not drawn) [Mefentrifluconazole]
- Disease control on severity on leaves ([2]; Mefentrifluconazole 100 g AI/ha): 49.9%
